In ChEMBL document CHEMBL5316263, “Structure-Based Discovery of Selective Histone Deacetylase 8 Degraders with Potent Anticancer Activity” (J Med Chem, 2023):
Active and inactive are the calls of the source. The rule behind the calls is not given here.

Key:
[1] = target: T1, Protein cereblon/Histone deacetylase 8 (Homo sapiens) (UniProt Q9BY41+Q96SW2); test: Protac activity at CRBN/HDAC8 in human A549 cells assessed as degradation of HDAC8 at 200 nM measured after 20 hrs by Western blot analysis relative to control; assay type: cell-based
T1 sequence (Q96SW2 whole entry, looked up, one chain of several): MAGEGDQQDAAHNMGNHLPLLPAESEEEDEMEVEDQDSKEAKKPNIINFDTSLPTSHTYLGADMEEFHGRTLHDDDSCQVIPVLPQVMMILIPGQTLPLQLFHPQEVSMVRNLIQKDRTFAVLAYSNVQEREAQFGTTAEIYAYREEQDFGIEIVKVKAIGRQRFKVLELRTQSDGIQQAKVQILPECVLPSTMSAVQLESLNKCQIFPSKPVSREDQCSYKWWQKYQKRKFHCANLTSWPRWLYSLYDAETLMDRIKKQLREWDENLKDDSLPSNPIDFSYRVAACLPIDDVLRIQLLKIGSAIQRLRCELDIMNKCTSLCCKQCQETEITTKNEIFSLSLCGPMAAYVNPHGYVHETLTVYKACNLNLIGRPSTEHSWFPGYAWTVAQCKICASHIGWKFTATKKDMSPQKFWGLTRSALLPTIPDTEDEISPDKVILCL

[2] = target: T1, Protein cereblon/Histone deacetylase 8 (Homo sapiens); test: Protac activity at CRBN/HDAC8 in human A549 cells assessed as degradation of HDAC8 at 2 uM measured after 20 hrs by Western blot analysis relative to control; assay type: cell-based
[3] = target: T2, von Hippel-Lindau disease tumor suppressor/Histone deacetylase 8 (Homo sapiens) (UniProt Q9BY41+P40337); test: Protac activity at VHL/HDAC8 in human A549 cells assessed as degradation of HDAC8 at 200 nM measured after 20 hrs by Western blot analysis relative to control; assay type: cell-based
T2 sequence (P40337 whole entry, looked up, one chain of several): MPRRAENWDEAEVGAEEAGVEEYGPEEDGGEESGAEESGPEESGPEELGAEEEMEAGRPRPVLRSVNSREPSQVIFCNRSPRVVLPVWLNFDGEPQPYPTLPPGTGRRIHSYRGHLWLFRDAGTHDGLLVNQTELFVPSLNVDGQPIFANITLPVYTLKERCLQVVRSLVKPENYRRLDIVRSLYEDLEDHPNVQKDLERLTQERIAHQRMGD

[4] = target: T2, von Hippel-Lindau disease tumor suppressor/Histone deacetylase 8 (Homo sapiens); test: Protac activity at VHL/HDAC8 in human A549 cells assessed as degradation of HDAC8 at 2 uM measured after 20 hrs by Western blot analysis relative to control; assay type: cell-based
[5] = target: Cereblon/Ikaros (Homo sapiens) (UniProt Q96SW2+Q13422); test: Protac activity at CRBN/IKZF1 in human A549 cells assessed as reduction in IKZF1 protein level at 10 uM by Western blot analysis; assay type: cell-based
[6] = target: T1, Protein cereblon/Histone deacetylase 8 (Homo sapiens); test: Protac activity at CRBN/HDAC8 in human A549 cells assessed as reduction in HDAC8 protein level at 0.1 to 10 uM by Western blot analysis; assay type: cell-based; conditions: dose 0.1-10 µM
[7] = target: Protein cereblon/Histone deacetylase 8 (Homo sapiens, UniProt Q96SW2+Q9BY41); test: Protac activity at CRBN/HDAC8 in human A549 cells assessed as degradation of HDAC8 incubated for 20 hrs by ELISA method; assay type: cell-based
Sequence of Protein cereblon/Histone deacetylase 8 (Q96SW2 whole entry, one chain of several): as the sequence (Q96SW2 whole entry, looked up, one chain of several) above

[8] = test system: A549; test: Antiproliferative activity against human A549 cells assessed as inhibition of cell growth measured after 72 hrs by CCK-8 method; assay type: functional, cell-based
[9] = target: T1, Protein cereblon/Histone deacetylase 8 (Homo sapiens); test: Protac activity at CRBN/HDAC8 in human A549 cells assessed as maximum degradation at 10 uM incubated for 20 hrs by ELISA method relative to control; assay type: cell-based
[10] = target: T3, Histone deacetylase 8 (Homo sapiens) (UniProt Q9BY41); test: Induction of degradation in HDAC8 in human A549 cells at 200 nM measured after 20 hrs by Western blot analysis relative to control; assay type: cell-based
T3 sequence (whole entry): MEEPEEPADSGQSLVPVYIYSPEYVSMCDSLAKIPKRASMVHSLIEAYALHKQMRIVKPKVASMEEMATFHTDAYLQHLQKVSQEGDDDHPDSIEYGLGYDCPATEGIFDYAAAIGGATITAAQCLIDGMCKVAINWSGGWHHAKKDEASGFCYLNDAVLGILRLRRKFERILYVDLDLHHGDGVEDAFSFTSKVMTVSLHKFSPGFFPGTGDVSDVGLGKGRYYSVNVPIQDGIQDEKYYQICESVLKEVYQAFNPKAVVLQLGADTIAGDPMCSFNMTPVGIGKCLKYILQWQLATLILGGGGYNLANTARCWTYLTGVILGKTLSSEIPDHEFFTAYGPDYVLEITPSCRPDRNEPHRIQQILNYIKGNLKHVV

[11] = target: T3, Histone deacetylase 8 (Homo sapiens); test: Induction of degradation in HDAC8 in human A549 cells at 10 uM incubated for 2 hrs by Western blot analysis; assay type: cell-based
[12] = target: T3, Histone deacetylase 8 (Homo sapiens); test: Induction of degradation in HDAC8 in human A549 cells at 2 microM measured after 20 hrs by Western blot analysis relative to control; assay type: cell-based
[13] = target: T2, von Hippel-Lindau disease tumor suppressor/Histone deacetylase 8 (Homo sapiens); test: Protac activity at VHL/HDAC8 in human A549 cells assessed as degradation of HDAC8 by Western blot analysis; assay type: cell-based; conditions: dose 0.1-10 µM
[14] = test system: A549; test: Inhibition of colony formation in human A549 cells assessed as reduction in cell proliferation at 2.5 to 10 uM measured after 7 to 10 days with media replenishment along with compound for every 3 days by crystal violet staining based analysis; assay type: functional; conditions: dose 2.5-10 µM, time 7-10 day
[15] = target: von Hippel-Lindau disease tumor suppressor/Histone deacetylase 2 (Homo sapiens) (UniProt Q92769+P40337); test: Protac activity at VHL/HDAC2 in human A549 cells assessed as degradation of HDAC2 at 0.1 to 10 uM by Western blot analysis; assay type: cell-based; conditions: dose 0.1-10 µM
Sequence of von Hippel-Lindau disease tumor suppressor/Histone deacetylase 2 (Homo sapiens) (P40337 whole entry, looked up): as the sequence (P40337 whole entry, looked up, one chain of several) above
Sequence of von Hippel-Lindau disease tumor suppressor/Histone deacetylase 2 (Homo sapiens) (Q92769 whole entry, looked up): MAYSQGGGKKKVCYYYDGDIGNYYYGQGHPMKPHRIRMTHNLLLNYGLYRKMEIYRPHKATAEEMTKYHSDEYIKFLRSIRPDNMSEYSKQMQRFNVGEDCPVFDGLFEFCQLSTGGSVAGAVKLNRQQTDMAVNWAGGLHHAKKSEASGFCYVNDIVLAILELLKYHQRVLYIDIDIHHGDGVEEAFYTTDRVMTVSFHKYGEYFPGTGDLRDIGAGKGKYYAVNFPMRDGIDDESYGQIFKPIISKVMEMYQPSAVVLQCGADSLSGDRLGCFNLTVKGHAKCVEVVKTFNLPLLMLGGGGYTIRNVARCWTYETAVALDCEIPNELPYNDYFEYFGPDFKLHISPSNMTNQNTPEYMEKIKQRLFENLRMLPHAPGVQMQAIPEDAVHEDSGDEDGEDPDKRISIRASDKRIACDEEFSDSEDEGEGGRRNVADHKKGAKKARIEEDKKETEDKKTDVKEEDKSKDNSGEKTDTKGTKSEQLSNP

[16] = target: von Hippel-Lindau disease tumor suppressor/Histone deacetylase 3 (Homo sapiens) (UniProt O15379+P40337); test: Protac activity at VHL/HDAC3 in human A549 cells assessed as degradation of HDAC3 at 0.1 to 10 uM by Western blot analysis; assay type: cell-based; conditions: dose 0.1-10 µM
Sequence of von Hippel-Lindau disease tumor suppressor/Histone deacetylase 3 (Homo sapiens) (O15379 whole entry, looked up): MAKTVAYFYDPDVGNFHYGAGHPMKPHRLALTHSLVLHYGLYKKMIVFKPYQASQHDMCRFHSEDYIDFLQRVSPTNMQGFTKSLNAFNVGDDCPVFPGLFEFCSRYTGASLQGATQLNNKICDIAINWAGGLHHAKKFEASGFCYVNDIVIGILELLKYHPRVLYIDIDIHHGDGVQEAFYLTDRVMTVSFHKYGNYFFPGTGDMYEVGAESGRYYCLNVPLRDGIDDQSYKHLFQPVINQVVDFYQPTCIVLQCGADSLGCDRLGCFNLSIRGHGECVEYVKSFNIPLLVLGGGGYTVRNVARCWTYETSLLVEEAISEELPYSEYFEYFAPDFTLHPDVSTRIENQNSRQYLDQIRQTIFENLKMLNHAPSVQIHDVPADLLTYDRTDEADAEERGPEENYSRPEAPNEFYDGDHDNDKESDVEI
Sequence of von Hippel-Lindau disease tumor suppressor/Histone deacetylase 3 (Homo sapiens) (P40337 whole entry, looked up): as the sequence (P40337 whole entry, looked up, one chain of several) above

[17] = test system: HCT-116; test: Inhibition of colony formation in human HCT-116 cells assessed as reduction in cell proliferation at 2.5 to 10 uM measured after 7 to 10 days with media replenishment along with compound for every 3 days by crystal violet staining based analysis; assay type: functional; conditions: dose 2.5-10 µM, time 7-10 day
[18] = target: von Hippel-Lindau disease tumor suppressor/Histone deacetylase 1 (Homo sapiens) (UniProt Q13547+P40337); test: Protac activity at VHL/HDAC1 in human A549 cells assessed as degradation of HDAC1 at 0.1 to 10 uM by Western blot analysis; assay type: cell-based; conditions: dose 0.1-10 µM
Sequence of von Hippel-Lindau disease tumor suppressor/Histone deacetylase 1 (Homo sapiens) (P40337 whole entry, looked up): as the sequence (P40337 whole entry, looked up, one chain of several) above
Sequence of von Hippel-Lindau disease tumor suppressor/Histone deacetylase 1 (Homo sapiens) (Q13547 whole entry, looked up): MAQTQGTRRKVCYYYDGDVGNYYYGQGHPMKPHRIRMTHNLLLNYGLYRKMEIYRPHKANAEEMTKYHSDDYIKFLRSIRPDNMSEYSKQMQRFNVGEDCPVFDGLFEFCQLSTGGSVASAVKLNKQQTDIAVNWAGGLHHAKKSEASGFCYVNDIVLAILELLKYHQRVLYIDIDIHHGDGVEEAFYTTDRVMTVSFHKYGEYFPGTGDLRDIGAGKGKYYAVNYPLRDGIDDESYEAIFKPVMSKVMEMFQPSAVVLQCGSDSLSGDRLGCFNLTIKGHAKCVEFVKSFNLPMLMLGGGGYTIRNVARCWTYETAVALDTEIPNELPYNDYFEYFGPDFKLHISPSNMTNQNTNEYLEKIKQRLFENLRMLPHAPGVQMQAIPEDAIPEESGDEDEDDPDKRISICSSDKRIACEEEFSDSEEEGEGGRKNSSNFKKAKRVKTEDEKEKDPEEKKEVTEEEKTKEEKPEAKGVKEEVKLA

SMILES	Activity [1]	Activity [2]	Activity [3]	Activity [4]	further results
O=C1CCC(N2C(=O)c3cccc(NCCc4cn(CCCCCOc5ccc(Cn6ccc7ccc(C(=O)NO)cc76)cc5)nn4)c3C2=O)C(=O)N1 (centres undefined)	28%	78.4%			
O=C1CCC(N2C(=O)c3cccc(NCc4cn(CCOCCOCCOCCOCCOc5ccc(Cn6ccc7ccc(C(=O)NO)cc76)cc5)nn4)c3C2=O)C(=O)N1 (centres undefined)	39.4%	80.2%			
Cc1ncsc1-c1ccc([C@H](C)NC(=O)[C@@H]2C[C@@H](O)CN2C(=O)[C@@H](NC(=O)CCCCCCOc2ccc(Cn3ccc4ccc(C(=O)NO)cc43)cc2)C(C)(C)C)cc1			29.8%	73.6%	
O=C1CCC(N2C(=O)c3cccc(NCc4cn(CCCCCOc5ccc(Cn6ccc7ccc(C(=O)NO)cc76)cc5)nn4)c3C2=O)C(=O)N1 (centres undefined)	39.5%	85.9%			Activity [5]: Active; Activity [6]: Active; EC50 [7]: 620 nM; IC50 ([8]; A549, 72 h): 12500 nM; Activity ([8]; dose <= 1.5 µM): Dose-Dependent Effect; Emax [9]: 90.2%
Nc1cccc2c1C(=O)N(C1CCC(=O)NC1=O)C2=O (centres undefined)					Activity [10]: 9.5%; Activity [11]: inactive; Activity [12]: 12.8%
Cc1ncsc1-c1ccc([C@H](C)NC(=O)[C@@H]2C[C@@H](O)CN2C(=O)[C@@H](NC(=O)COCCOc2ccc(Cn3ccc4ccc(C(=O)NO)cc43)cc2)C(C)(C)C)cc1			45.7%	91.3%	Activity [13]: Active; inhibition [14]: Active; Activity [15]: inactive; Activity [16]: inactive; inhibition [17]: Active; Activity [18]: inactive
Cc1ncsc1-c1ccc([C@H](C)NC(=O)[C@@H]2C[C@@H](O)CN2C(=O)[C@@H](NC(=O)CCCCCOc2ccc(Cn3ccc4ccc(C(=O)NO)cc43)cc2)C(C)(C)C)cc1			27.3%	51.4%	
O=C1CCC(N2C(=O)c3cccc(NCc4cn(CCCCCCOc5ccc(Cn6ccc7ccc(C(=O)NO)cc76)cc5)nn4)c3C2=O)C(=O)N1 (centres undefined)	28.5%	59.7%			EC50 [7]: 580 nM
Cc1ncsc1-c1ccc([C@H](C)NC(=O)[C@@H]2C[C@@H](O)CN2C(=O)[C@@H](NC(=O)COCCOCCOCCOCCOc2ccc(Cn3ccc4ccc(C(=O)NO)cc43)cc2)C(C)(C)C)cc1			28.6%	72.9%	
O=C1CCC(N2C(=O)c3cccc(NCc4cn(CCOCCOCCOCCOc5ccc(Cn6ccc7ccc(C(=O)NO)cc76)cc5)nn4)c3C2=O)C(=O)N1 (centres undefined)	36.5%	65.9%			
